Results published in PubChem BioAssay AID288 (DTP/NCI, 2004).
Results filed as inconclusive are left out.

Tested on: BDF1 mice, M5076 sarcoma s.c., survival/tumor T/C
Assay: NCI In Vivo Anticancer Drug Screen. Data for tumor model Sarcoma M5076 (subcutaneous) in B6D2F1 (BDF1) mice
Protocol: The antitumor activity of compounds was measured in mice bearing transplantable tumors. Survival or tumor size were measured and the results are expressed as the measurement made in the treated group (T) divided by the measurement made in the vehicle treated control group (C). The tumor model used in this assay is Sarcoma M5076 (subcutaneous) in B6D2F1 (BDF1) mice

[1] = endpoint: mean tumor weight, dose: 25.0 mg/kg/injection, schedule: Q02DX011 (ip), vehicle: saline, higher = larger tumour
[2] = endpoint: mean tumor weight, dose: 50.0 mg/kg/injection, schedule: Q02DX011 (ip), vehicle: saline, higher = larger tumour
[3] = endpoint: median tumor weight (est.), dose: 25.0 mg/kg/injection, schedule: Q02DX011 (ip), vehicle: saline, higher = larger tumour
[4] = endpoint: median tumor weight (est.), dose: 50.0 mg/kg/injection, schedule: Q02DX011 (ip), vehicle: saline, higher = larger tumour
[5] = endpoint: median survival time, dose: 50.0 mg/kg/injection, schedule: Q01DX009 (ip), vehicle: saline with Tween-80, higher = longer survival
[6] = endpoint: median survival time, dose: 100.0 mg/kg/injection, schedule: Q01DX009 (ip), vehicle: saline with Tween-80, higher = longer survival
[7] = endpoint: median tumor weight (est.), dose: 50.0 mg/kg/injection, schedule: Q01DX009 (ip), vehicle: saline with Tween-80, higher = larger tumour
[8] = endpoint: median tumor weight (est.), dose: 100.0 mg/kg/injection, schedule: Q01DX009 (ip), vehicle: saline with Tween-80, higher = larger tumour

In the case of `NCCc1ccc(O)c(O)c1`, the T/C [1] was 53 % of control, the T/C [2] was 57 % of control and the T/C (endpoint: mean tumor weight, dose: 100.0 mg/kg/injection, schedule: Q02DX011 (ip), vehicle: saline, higher = larger tumour) was 62 % of control. The T/C (endpoint: mean tumor weight, dose: 200.0 mg/kg/injection, schedule: Q02DX011 (ip), vehicle: saline, higher = larger tumour) was 45 % of control, the T/C (endpoint: mean tumor weight, dose: 400.0 mg/kg/injection, schedule: Q02DX011 (ip), vehicle: saline, higher = larger tumour) was 76 % of control and the T/C (endpoint: mean tumor weight, dose: 800.0 mg/kg/injection, schedule: Q02DX011 (ip), vehicle: saline, higher = larger tumour) was 95 % of control. For the same compound, the T/C (endpoint: median survival time, dose: 12.5 mg/kg/injection, schedule: Q02DX030 (ip), vehicle: saline, higher = longer survival) was 114 % of control, the T/C (endpoint: median survival time, dose: 25.0 mg/kg/injection, schedule: Q02DX030 (ip), vehicle: saline, higher = longer survival) was 99 % of control and the T/C (endpoint: median survival time, dose: 50.0 mg/kg/injection, schedule: Q02DX030 (ip), vehicle: saline, higher = longer survival) was 91 % of control. For the same compound, the T/C (endpoint: median survival time, dose: 100.0 mg/kg/injection, schedule: Q02DX030 (ip), vehicle: saline, higher = longer survival) was 100 % of control, the T/C (endpoint: median survival time, dose: 200.0 mg/kg/injection, schedule: Q02DX030 (ip), vehicle: saline, higher = longer survival) was 93 % of control and the T/C (endpoint: median survival time, dose: 800.0 mg/kg/injection, schedule: Q02DX030 (ip), vehicle: saline, higher = longer survival) was 91 % of control. For the same compound, the T/C [3] was 58 % of control, the T/C [4] was 59 % of control and the T/C (endpoint: median tumor weight (est.), dose: 100.0 mg/kg/injection, schedule: Q02DX011 (ip), vehicle: saline, higher = larger tumour) was 80 % of control. For the same compound, the T/C (endpoint: median tumor weight (est.), dose: 200.0 mg/kg/injection, schedule: Q02DX011 (ip), vehicle: saline, higher = larger tumour) was 62 % of control, the T/C (endpoint: median tumor weight (est.), dose: 400.0 mg/kg/injection, schedule: Q02DX011 (ip), vehicle: saline, higher = larger tumour) was 66 % of control and the T/C (endpoint: median tumor weight (est.), dose: 800.0 mg/kg/injection, schedule: Q02DX011 (ip), vehicle: saline, higher = larger tumour) was 77 % of control. The T/C (endpoint: median tumor weight change, dose: 12.5 mg/kg/injection, schedule: Q02DX006 (ip), vehicle: saline, higher = larger tumour) was 86 % of control, the T/C (endpoint: median tumor weight change, dose: 25.0 mg/kg/injection, schedule: Q02DX006 (ip), vehicle: saline, higher = larger tumour) was 93 % of control and the T/C (endpoint: median tumor weight change, dose: 50.0 mg/kg/injection, schedule: Q02DX006 (ip), vehicle: saline, higher = larger tumour) was 112 % of control. The T/C (endpoint: median tumor weight change, dose: 100.0 mg/kg/injection, schedule: Q02DX006 (ip), vehicle: saline, higher = larger tumour) was 103 % of control, the T/C (endpoint: median tumor weight change, dose: 200.0 mg/kg/injection, schedule: Q02DX006 (ip), vehicle: saline, higher = larger tumour) was 105 % of control and the T/C (endpoint: median tumor weight change, dose: 400.0 mg/kg/injection, schedule: Q02DX006 (ip), vehicle: saline, higher = larger tumour) was 99 % of control. For the same compound, the T/C (endpoint: median tumor weight change, dose: 800.0 mg/kg/injection, schedule: Q02DX006 (ip), vehicle: saline, higher = larger tumour) was 101 % of control.

With `C[C@@]12C(=O)OC(=O)[C@]1(C)[C@H]1CC[C@@H]2O1` the T/C (endpoint: median survival time, dose: 0.1 mg/kg/injection, schedule: Q01DX009 (ip), vehicle: acetone, higher = longer survival) was 94 % of control, the T/C (endpoint: median survival time, dose: 0.2 mg/kg/injection, schedule: Q01DX009 (ip), vehicle: acetone, higher = longer survival) was 106 % of control and the T/C (endpoint: median survival time, dose: 0.4 mg/kg/injection, schedule: Q01DX009 (ip), vehicle: acetone, higher = longer survival) was 101 % of control. The T/C (endpoint: median survival time, dose: 0.8 mg/kg/injection, schedule: Q01DX009 (ip), vehicle: acetone, higher = longer survival) was 89 % of control, the T/C (endpoint: median tumor weight (est.), dose: 0.1 mg/kg/injection, schedule: Q01DX009 (ip), vehicle: acetone, higher = larger tumour) was 117 % of control and the T/C (endpoint: median tumor weight (est.), dose: 0.2 mg/kg/injection, schedule: Q01DX009 (ip), vehicle: acetone, higher = larger tumour) was 64 % of control. The T/C (endpoint: median tumor weight (est.), dose: 0.4 mg/kg/injection, schedule: Q01DX009 (ip), vehicle: acetone, higher = larger tumour) was 109 % of control and the T/C (endpoint: median tumor weight (est.), dose: 0.8 mg/kg/injection, schedule: Q01DX009 (ip), vehicle: acetone, higher = larger tumour) was 90 % of control.

With `COc1ccc(/C=C2\SC(=S)N(C3CC3)C2=O)cc1OC` the T/C [5] was 95 % of control, the T/C [6] was 93 % of control and the T/C (endpoint: median survival time, dose: 200.0 mg/kg/injection, schedule: Q01DX009 (ip), vehicle: saline with Tween-80, higher = longer survival) was 100 % of control. For the same compound, the T/C [7] was 90 % of control, the T/C [8] was 88 % of control and the T/C (endpoint: median tumor weight (est.), dose: 200.0 mg/kg/injection, schedule: Q01DX009 (ip), vehicle: saline with Tween-80, higher = larger tumour) was 79 % of control.

In the case of `O=C1N=C(Oc2ccccc2)SC1=O`, the T/C (endpoint: median survival time, dose: 50.0 mg/kg/injection, schedule: Q04DX003 (ip), vehicle: saline with Tween-80, higher = longer survival) was 106 % of control.

For `Cc1c2ccncc2c(C)c2c1[nH]c1ccccc12`, the T/C (endpoint: mean tumor weight, dose: 12.5 mg/kg/injection, schedule: Q02DX011 (ip), vehicle: saline, higher = larger tumour) was 100 % of control, the T/C (endpoint: mean tumor weight, dose: 12.5 mg/kg/injection, schedule: Q02DX011 (ip), vehicle: water, higher = larger tumour) was 55 % of control and the T/C [1] was 65 % of control. For the same compound, the T/C [2] was 36 % of control, the T/C (endpoint: median tumor weight (est.), dose: 12.5 mg/kg/injection, schedule: Q02DX011 (ip), vehicle: saline, higher = larger tumour) was 355 % of control and the T/C (endpoint: median tumor weight (est.), dose: 12.5 mg/kg/injection, schedule: Q02DX011 (ip), vehicle: water, higher = larger tumour) was 47 % of control. The T/C [3] was 314 % of control and the T/C [4] was 98 % of control.

In the case of `C1CCC2OCCOCCOCCOCCOC2C1` (stereo not given), the T/C (endpoint: median survival time, dose: 50.0 mg/kg/injection, schedule: Q01DX009 (ip), vehicle: saline, higher = longer survival) was 111 % of control, the T/C (endpoint: median survival time, dose: 100.0 mg/kg/injection, schedule: Q01DX009 (ip), vehicle: saline, higher = longer survival) was 113 % of control and the T/C (endpoint: median tumor weight (est.), dose: 50.0 mg/kg/injection, schedule: Q01DX009 (ip), vehicle: saline, higher = larger tumour) was 66 % of control. The T/C (endpoint: median tumor weight (est.), dose: 100.0 mg/kg/injection, schedule: Q01DX009 (ip), vehicle: saline, higher = larger tumour) was 75 % of control.

`CC(=O)[C@H]1CC[C@H]2[C@@H]3C[C@H](C)C4=CC(=O)CC[C@]4(C)[C@H]3C(=O)C[C@]12C` was tested, and the T/C (endpoint: mean tumor weight, dose: 100.0 mg/kg/injection, schedule: Q02DX011 (ip), vehicle: Klucel (hydroxypropylcellulose) (HPC), higher = larger tumour) was 51 % of control and the T/C (endpoint: mean tumor weight, dose: 200.0 mg/kg/injection, schedule: Q02DX011 (ip), vehicle: Klucel (hydroxypropylcellulose) (HPC), higher = larger tumour) was 74 % of control.

With `CC1(C)COCN1COCCOCN1COCC1(C)C` the T/C (endpoint: median survival time, dose: 50.0 mg/kg/injection, schedule: Q04DX003 (ip), vehicle: saline, higher = longer survival) was 103 % of control and the T/C (endpoint: median survival time, dose: 100.0 mg/kg/injection, schedule: Q04DX003 (ip), vehicle: saline, higher = longer survival) was 95 % of control.

With `OCCNCCN=C1CCC(=NCCNCCO)CC1` the T/C [5] was 100 % of control, the T/C [6] was 100 % of control and the T/C [7] was 105 % of control. The T/C [8] was 112 % of control.

In the case of `CO[C@H](C(=O)[C@@H](O)[C@@H](C)O)[C@@H]1Cc2cc3cc(OC4CC(OC5CC(O)C(O)C(C)O5)C(O)C(C)O4)c(C)c(O)c3c(O)c2C(=O)[C@H]1OC1CC(OC2CC(OC3CC(C)(O)C(O)C(C)O3)C(O)C(C)O2)C(O)C(C)O1` (stereo not given in full), the T/C (endpoint: mean tumor weight, dose: 1.25 micrograms/kg/injection, schedule: Q02DX011 (ip), vehicle: water, higher = larger tumour) was 151 % of control, the T/C (endpoint: mean tumor weight, dose: 5.0 micrograms/kg/injection, schedule: Q02DX011 (ip), vehicle: water, higher = larger tumour) was 168 % of control and the T/C (endpoint: median tumor weight (est.), dose: 0.01 mg/kg/injection, schedule: Q02DX011 (ip), vehicle: water, higher = larger tumour) was 99 % of control. The T/C (endpoint: median tumor weight (est.), dose: 0.05 mg/kg/injection, schedule: Q02DX011 (ip), vehicle: water, higher = larger tumour) was 154 % of control.

For `OC(CBr)C(O)C(O)C(O)CBr` (stereo not given), the T/C (endpoint: mean tumor weight, dose: 37.5 mg/kg/injection, schedule: Q02DX011 (ip), vehicle: Klucel (hydroxypropylcellulose) (HPC), higher = larger tumour) was 66 % of control, the T/C (endpoint: mean tumor weight, dose: 75.0 mg/kg/injection, schedule: Q02DX011 (ip), vehicle: Klucel (hydroxypropylcellulose) (HPC), higher = larger tumour) was 63 % of control and the T/C (endpoint: mean tumor weight, dose: 150.0 mg/kg/injection, schedule: Q02DX011 (ip), vehicle: Klucel (hydroxypropylcellulose) (HPC), higher = larger tumour) was 52 % of control. For the same compound, the T/C (endpoint: median survival time, dose: 30.0 mg/kg/injection, schedule: Q04DX009 (ip), vehicle: saline with Tween-80, higher = longer survival) was 108 % of control, the T/C (endpoint: median survival time, dose: 60.0 mg/kg/injection, schedule: Q02DX033 (ip), vehicle: saline with Tween-80, higher = longer survival) was 112 % of control and the T/C (endpoint: median survival time, dose: 60.0 mg/kg/injection, schedule: Q04DX009 (ip), vehicle: saline with Tween-80, higher = longer survival) was 108 % of control. The T/C (endpoint: median survival time, dose: 120.0 mg/kg/injection, schedule: Q02DX033 (ip), vehicle: saline with Tween-80, higher = longer survival) was 158 % of control, the T/C (endpoint: median survival time, dose: 120.0 mg/kg/injection, schedule: Q04DX009 (ip), vehicle: saline with Tween-80, higher = longer survival) was 112 % of control and the T/C (endpoint: median tumor weight (est.), dose: 37.5 mg/kg/injection, schedule: Q02DX011 (ip), vehicle: Klucel (hydroxypropylcellulose) (HPC), higher = larger tumour) was 75 % of control. For the same compound, the T/C (endpoint: median tumor weight (est.), dose: 75.0 mg/kg/injection, schedule: Q02DX011 (ip), vehicle: Klucel (hydroxypropylcellulose) (HPC), higher = larger tumour) was 90 % of control and the T/C (endpoint: median tumor weight (est.), dose: 150.0 mg/kg/injection, schedule: Q02DX011 (ip), vehicle: Klucel (hydroxypropylcellulose) (HPC), higher = larger tumour) was 72 % of control.
